Measurements reported in patent publication US20090214696A1, “Lycopene Incorporation Into Egg Yolks” (priority 2005, published 2009).
Where two headings read alike, the source gives them in different places.

What was measured:
[1] = Study 1: yolk and plasma lycopene/lutein by UV/VIS spectrophotometer; format: in vivo, second cycle laying hens (Hyline W36); conditions: Diet 4: 48 mg lycopene + 6.5 mg Lutein/kg diet, 19 d
Method: Lycopene is a carotenoid with potential anti-cancer functions. […] Therefore, second cycle laying hens (Hyline W36) were examined for their ability to absorb dietary lycopene and incorporate lycopene into egg yolks. A completely randomized design was used in which 3 levels of dietary lycopene (0, 1.0 and 5.7 mg/bird*day) or lycopene +lutein (5.7 mg lycopene+0.8 mg lutein/bird*day) were incorporated into the birds normal diet. Birds were housed in commercial cages with ad libitum access to water (n=3 cages/diet; 5 birds/cage), and were fed 120 g diet/bird*day. […] Future trials will examine increased dietary lycopene levels and routes of administration.
Commercial laying hen diet (corn, soybean, from NuWest) was supplemented with lycopene and lutein (DSM). Second Cycle Hyline W36 Hens were housed in standard lay cages. Dependant Variables: Yolks and Plasma. Lipid Extraction was done as previously described (Koutsos at al. 2003 J Nutr 133:1132-1138). A UV/VIS spectrophotometer was use to measure absorbance at 464 nm for Lutein and 352 nm for Lycopene. For Studies 2 and 3, the Roche Colour Score was taken of egg yolks using a blind analysis. The following statistics were calculated: ANOVA for main effect of diet+days on diet and interactions and t-test for differences between means. Results were significant at p<0.05. […]

[2] = Study 2: yolk and plasma lycopene/lutein by UV/VIS spectrophotometer; format: in vivo, Second Cycle Hyline W36 Hens
Excerpt: (§1) Commercial laying hen diet (corn, soybean, from NuWest) was supplemented with lycopene and lutein (DSM). Second Cycle Hyline W36 Hens were housed in standard lay cages. Dependant Variables: Yolks and Plasma. Lipid Extraction was done as previously described (Koutsos at al. 2003 J Nutr 133:1132-1138). A UV/VIS spectrophotometer was use to measure absorbance at 464 nm for Lutein and 352 nm for Lycopene. For Studies 2 and 3, the Roche Colour Score was taken of egg yolks using a blind analysis. The following statistics were calculated: ANOVA for main effect of diet+days on diet and interactions and t-test for differences between means. Results were significant at p<0.05.
(§2) In Study 2, 5 hens were housed per cage and 3 cages were given treatment for 19 d on a diet at 100 g diet/bird*d. Lycopene and Lutein levels were increased and dispersed in H2O: Diet 1: Negative Control+3000 ml H2O; Diet 2: Negative Control+880 mg lycopene/kg diet +3000 ml H2O; Diet 3: Negative Control+5140 mg lycopene/kg diet+3000 ml H2O; Diet 4: Negative Control+7.8 mg Lutein/kg diet+3000 ml H2O. The Roche Yolk Colour Fan was used (FIG. 4, 5). […] Diet had no effect on Yolk Lutein and/or Lycopene (p>0.20 for all). Diet on Plasma lycopene had no effect (p=0.17). Plasma Lutein+Lycopene had no effect (p=0.07). Diet on Plasma Lutein: (p=0.04).

[3] = Study 2: Roche Yolk Colour Fan; format: in vivo, Second Cycle Hyline W36 Hens; conditions: 880 or 5140 mg lycopene/kg diet or 7.8 mg Lutein/kg diet dispersed in H2O, 19 d
Excerpt: as §1, §2

[4] = egg vs vegetable sources; cited from earlier work
[5] = acute toxicity, mice; cited from earlier work
[6] = Study 3: Roche Yolk Colour Fan; format: in vivo, Second Cycle Hyline W36 Hens; conditions: control diet vs diets >1285 mg Lycopene, 15 d
Excerpt: as §1
(§3) In Study 3, 5 hens were housed per cage and 1 cage received treatment for 15 d on diet at 100 g diet/bird*d. Lycopene levels were increased and dispersed in H2O: Diet 1: Negative Control+3000 ml H2O; Diet 2: Negative Control+880 mg lycopene/kg diet+3000 ml H2O; Diet 3: Negative Control+1285 mg lycopene/kg diet+3000 ml H2O; Diet 4: Negative Control +2570 mg lycopene/kg diet+3000 ml H2O; Diet 5: Negative Control+3855 mg lycopene/kg diet+3000 ml H2O; Diet 6: Negative Control+5140 mg lycopene/kg diet+3000 ml H2O; Diet 7: Negative Control+6425 mg lycopene/kg diet+3000 ml H2O; Diet 8: Diet 5+7.8 mg Lutein/kg diet; Diet 9: Diet 7+7.8 mg Lutein/kg diet.

[7] = Yolk lycopene concentration by HPLC in eggs from hens fed lycopene (Example 1 trial); format: in vivo, White Leghorn laying hens
Excerpt: (§4) The purpose of this trial was to examine the ability of the laying hen to deposit lycopene into the egg yolk for the purpose of supplementing human diets with additional lycopene. Control egg-laying hens were fed a 100 gram per bird basal diet for 15 days described in Table 1. Test hens were fed the basal diet supplemented with varying amounts of lycopene.
(§5) The California Polytechnic State University Animal Care and Use Committee approved all protocols. Using a completely randomized design, first-cycle White Leghorn (Hyline W36 strain, 23 wks old) laying hens from the Cal Poly University flock were randomly assigned to one of three dietary lycopene levels. Birds were fed a basal diet formulated to meet or exceed all nutrient requirements for laying hens (National Research Council 1994 Nutrient requirements of Poultry, Ninth Revised Edition, National Academy Press, Washington, D.C.) plus either 0, 65, 257, or 650 mg lycopene/kg diet; the lycopene provided was the all-trans isomer. Dietary levels were chosen based on the amount of lycopene contained in an uncooked 100 g tomato, as well as data concerning the absorption of lutein by laying hens (Leeson, S. and Caston, L. 2004 Poultry Science 83:1709-1712). Lycopene was supplied in a 5% powder form attached to a gelatin molecule. In order for lycopene to be absorbed from this source, water (60° C.) was used to disperse the lycopene prior to dietary addition.
Hens were housed in commercial-type cages (n=3 cages/diet, 4 birds/cage, 135 sq. inches/bird) with ad libitum access to water. Hens were fed their assigned diets at 100 g/bird*day for 15 days. Eggs were gathered daily, and after 15 days of dietary feeding, analysis of egg lycopene levels were completed by Roche color score (a standardized set of color swatches corresponding to a number from 1-15) and by HPLC analysis (DSM International, Basel Switzerland).

[8] = Roche yolk color score of eggs from hens fed lycopene (Example 1 trial); format: in vivo, White Leghorn laying hens; conditions: 65, 257 or 650 mg lycopene/kg diet vs 0 mg, 15 days, p<0.05
Excerpt: as §4
as §5, with “In order for lycopene to be absorbed from this source, water (60° C.) was used to disperse the lycopene prior to dietary addition.” left out

[9] = Study 1: Roche color fan of egg yolks; format: in vivo, second cycle laying hens (Hyline W36); conditions: 0, 1.0 and 5.7 mg lycopene/bird*day, after 18 d
[10] = Study 3: yolk and plasma lycopene/lutein by UV/VIS spectrophotometer; format: in vivo, Second Cycle Hyline W36 Hens
Excerpt: as §1, §3

[11] = acute toxicity, rats; cited from earlier work

SMILES	Yolk lutein ([1]; p<0.05)	Plasma lutein ([1]; p=0.36)	Yolk lutein ([2]; effect of diet, Study 2, p>0.20)	Roche Colour Fan score [3]	Absorbance from egg relative to absorbance from vegetable sources [4]	LD50 [5]	Yolk pigment (Roche color scores) [6]	Plasma Lutein+Lycopene ([2]; in vivo)	Plasma lycopene ([2]; in vivo)	Yolk Lycopene ([2]; in vivo)	Yolk lycopene levels (HPLC) ([7]; 257 or 650 mg lycopene/kg diet vs 65 mg/kg diet, 15 days, p<0.05)	concentration at 15 days ([7]; female, White Leghorn (Hyline W36), chicken (laying hen), egg yolk, oral, based upon HPLC data, large egg, read-out: Maximal concentration of yolk lycopene (converted)) [ng/g]	Dietary level for optimal lycopene incorporation into egg (regression analysis) ([7]; regression of yolk lycopene on dietary lycopene) [mg/kg diet]	Roche yolk color score [8]	Egg yolk pigmentation (Roche color fan) [9]	Yolk Lycopene ([10]; effect of diet, Study 3, p<0.01, Diets 2, 3 = 880, 1285 mg lycopene/kg diet)	Yolk Lutein+Lycopene ([10]; effect of diet, Study 3, p=0.94)	Plasma Lutein and/or Lycopene ([10]; in vivo)	LD50 [11]
CC1=C[C@H](O)CC(C)(C)[C@H]1/C=C/C(C)=C/C=C/C(C)=C/C=C/C=C(C)/C=C/C=C(C)/C=C/C1=C(C)C[C@@H](O)CC1(C)C [lutein]	increased	no increase	no effect	no effect	approximately 2.12 times	–	–	–	–	–	–	–	–	–	–	–	–	–	–
CC(C)=CCC/C(C)=C/C=C/C(C)=C/C=C/C(C)=C/C=C/C=C(C)/C=C/C=C(C)/C=C/C=C(\C)CCC=C(C)C [lycopene]	–	–	–	5140 mg>0 mg	–	3000 mg lycopene/kg body weight	consistent difference in yolk pigment	no effect	no effect	no effect	significantly greater lycopene levels	4710	420	significantly greater yolk color score	no detectable change in pigmentation	Diet 2, 3>1, 4, 5, 6, 8, 9	no effect	no effect	10,000 mg/kg body weight
